Experiment [1] relates to Bronchial epithelial cells. Description: BioMAP BE3C system (IL-1β + TNF-α + IFN-γ), scoring of readout parameters. In kind it is cell-based, human. In short, it runs like this:
(§1)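 Compounds were added 1 h ahead of a 24 h stimulus (cytokines: IL-1β 1, TNF-α 5, IFN-γ 20, TGF-β 5 ng/ml; LPS 2 ng/ml) on primary human cell systems, final DMSO 0.1% or less. Parameter levels measured by ELISA in duplicate, expressed as log10 treated/control ratios and scored for modulation direction.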

Experiment [2] concerns Umbilical Vein Endothelial Cells. Description: BioMAP 3C system (IL-1β + TNF-α + IFN-γ), scoring of readout parameters. It is filed as cell-based, human. In short, it runs like this:
as §1

The test system of experiment [3] is Fibroblasts. Briefly: BioMAP HDF3CT system (IL-1β + TNF-α + IFN-γ + TGF-β), scoring of readout parameters. In kind it is cell-based, human. In a few lines: as §1
The test system of experiment [4] is Fibroblasts. Briefly: BioMAP HDFT system (TGF-β), scoring of readout parameters. Set-up: key to PAI-1 score: 1 = modulated in desired direction, 0 = not (no penalties applied). It is filed as cell-based, human. Particulars: HDFT; desired change decrease. In a few lines: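 Pooled human dermal fibroblasts from 3 donors, plated confluent, stimulated 24 h with TGF-β 5 ng/ml; compounds added 1 h before and present throughout, DMSO ≤0.1%. Readouts by ELISA (OD 450 nm minus 650 nm), duplicate means as ratio to control; each parameter scored 1 if modulated in desired direction, else 0, no penalties.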

Experiment [5] concerns Fibroblasts. Briefly: BioMAP HDF3CGF system (IL-1β + TNF-α + IFN-γ + EGF + bFGF + PDGFbb), scoring of readout parameters. In kind it is cell-based, human.
Another experiment deals with human primary cells. Briefly: Total score for desired parameter modulation over the BioMAP systems of Table 1. It is filed as cell-based. Conditions: penalties not applied. In a few lines:
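The total is the number of readouts moved in the intended direction, 1 each, 0 otherwise and no penalties, over stimulated primary human cell and co-culture systems. Readouts were measured by ELISA after 24 h, or 48–72 h for proliferation, with compound present from 1 h before stimulation (DMSO ≤0.1%). Compounds were preselected for non-cytotoxic PAI-1 inhibition in fibroblasts.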

Experiment [6] has as its system Bronchial epithelial cells. Briefly: BioMAP BE4T system (IL-4 + TNF-a), scoring of readout parameters. In kind it is cell-based, human. More on the design: key: 1 = modulated in desired direction, 0 = not (−1 = opposite). In a few lines:
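Readout parameters, quantified by ELISA at OD 450 nm minus 650 nm background, were converted to log10 ratios of treated over control. Each parameter scored positive when modulated in the desired direction, with optional −1 penalty for opposite regulation. Cells were pooled human bronchial epithelial cells, pretreated 1 h with compound, then stimulated 24 h with IL-4 plus TNF-α (5 ng/ml each).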

Experiment [7] concerns Peripheral Blood Mononuclear Cells + Umbilical Vein Endothelial Cells. Description: BioMAP LPS system (TLR4), scoring of readout parameters. In kind it is cell-based, human. Conditions: LPS (by position); desired change decrease. In short, it runs like this: as §1

In the case of `CCc1oc2ccccc2c1C(=O)c1cc(Br)c(O)c(Br)c1` [Benzbromarone], the HLA-DR score in experiment [1] and in experiment [2] (desired change decrease) was 0 in each case. In addition, the MMP-1 score is given as 1 in experiment [1], 0 in the experiment on Fibroblasts [3] and 0 in the experiment on Fibroblasts [5] (desired change increase). Moreover, the figures for the uPA score in experiment [1] and in experiment [6] were 0 and 1, respectively. The PAI-1 score in experiment [1] (desired change decrease) was 1; with Fibroblasts [4], 1; with Fibroblasts [5] (desired change decrease), 1; in experiment [6] (desired change decrease), 0. In addition, the EGFR score (in experiment [1] (desired no change or increase); in the experiment with Fibroblasts [5] (desired no change or increase); in experiment [6] (desired no change or increase)) was 0 in each case. For the same molecule, in experiment [2] (desired change increase), the uPAR score came out at 0. The “Score (Fraction correctly modulated parameters out of 45-58 total)” value with human primary cells was determined as 0.36. Further, in experiment [7], the TF score is listed as 0.
